From patent US20260262643A1, “HERBICIDAL BENZOXAZINES” (FMC CORPORATION, priority 2022, published 2026)

Tests used:
[1] = test system: ducksalad; experiment: Test B flooded paddy test; type: in vivo, Heteranthera limosa; details: 250 g ai/ha, Flood, 13 days, 0 to 100 scale (0 no effect, 100 complete control)
Outline: (§1)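 Percent weed or crop control, judged by eye on a 0–100 scale 13 days post-treatment, reflects compound added to a 3 cm flood maintained over 2-leaf plants in the greenhouse. Missing entries are marked with a dash.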

[2] = test system: corn; experiment: Test A postemergence; type: in vivo, Zea mays; details: postemergence, 10 days
Outline: (§2)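 Seeds in loam–sand blend received a directed preemergence soil spray of compound in non-phytotoxic solvent with surfactant; postemergence plants (2–10 cm, one- to two-leaf stage) were sprayed with the same formulation. After 10 days in greenhouse, injury was rated visually versus untreated controls, 0 (no effect) to 100 (complete control).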

[3] = test system: barnyardgrass; experiment: Test B flooded paddy test; type: in vivo, Echinochloa crus-galli; details: 250 g ai/ha, Flood, 13 days, 0 to 100 scale (0 no effect, 100 complete control)
Outline: as §1

[4] = test system: goosegrass; experiment: Test A preemergence; type: in vivo, Eleusine indica
Outline: as §2

[5] = test system: soybean; experiment: Test A preemergence; type: in vivo, Glycine max
Outline: as §2

[6] = test system: foxtail, giant; experiment: Test A preemergence; type: in vivo, Setaria faberi
Outline: as §2

[7] = test system: blackgrass; experiment: Test A postemergence; type: in vivo, Alopecurus myosuroides; details: postemergence, 10 days
Outline: as §2

[8] = test system: pigweed, palmer; experiment: Test A postemergence; type: in vivo, Amaranthus palmeri; details: postemergence, 10 days
Outline: as §2

[9] = test system: ryegrass, Italian; experiment: Test A preemergence; type: in vivo, Lolium multiflorum
Outline: as §2

[10] = test system: rice; experiment: Test B flooded paddy test; type: in vivo, Oryza sativa; details: 250 g ai/ha, Flood, 13 days, 0 to 100 scale (0 no effect, 100 complete control)
Outline: as §1

[11] = test system: soybean; experiment: Test A postemergence; type: in vivo, Glycine max; details: postemergence, 10 days
Outline: as §2

[12] = test system: horseweed; experiment: Test A postemergence; type: in vivo, Erigeron canadensis; details: postemergence, 10 days
Outline: as §2

[13] = test system: goosegrass; experiment: Test A postemergence; type: in vivo, Eleusine indica; details: postemergence, 10 days
Outline: as §2

[14] = test system: ragweed; experiment: Test A preemergence; type: in vivo, Ambrosia artemisiifolia
Outline: as §2

[15] = test system: sedge, umbrella; experiment: Test B flooded paddy test; type: in vivo, Cyperus difformis; details: 250 g ai/ha, Flood, 13 days, 0 to 100 scale (0 no effect, 100 complete control)
Outline: as §1

[16] = test system: wheat; experiment: Test A preemergence; type: in vivo, Triticum aestivum
Outline: as §2

[17] = test system: kochia; experiment: Test A preemergence; type: in vivo, Bassia scoparia
Outline: as §2

[18] = test system: ragweed; experiment: Test A postemergence; type: in vivo, Ambrosia artemisiifolia; details: postemergence, 10 days
Outline: as §2

[19] = test system: corn; experiment: Test A preemergence; type: in vivo, Zea mays
Outline: as §2

[20] = test system: ryegrass, Italian; experiment: Test A postemergence; type: in vivo, Lolium multiflorum; details: postemergence, 10 days
Outline: as §2

[21] = test system: oat, wild; experiment: Test A postemergence; type: in vivo, Avena fatua; details: postemergence, 10 days
Outline: as §2

[22] = test system: wheat; experiment: Test A postemergence; type: in vivo, Triticum aestivum; details: postemergence, 10 days
Outline: as §2

[23] = test system: oat, wild; experiment: Test A preemergence; type: in vivo, Avena fatua
Outline: as §2

[24] = test system: kochia; experiment: Test A postemergence; type: in vivo, Bassia scoparia; details: postemergence, 10 days
Outline: as §2

[25] = test system: foxtail, giant; experiment: Test A postemergence; type: in vivo, Setaria faberi; details: postemergence, 10 days
Outline: as §2

[26] = test system: blackgrass; experiment: Test A preemergence; type: in vivo, Alopecurus myosuroides
Outline: as §2

[27] = test system: pigweed, palmer; experiment: Test A preemergence; type: in vivo, Amaranthus palmeri
Outline: as §2

[28] = 125 g ai/ha, 0 to 100 scale, 0 no effect, 100 complete control
[29] = 500 g ai/ha, visual injury, 0 to 100 scale (0 no effect, 100 complete control)
[30] = 125 g ai/ha, visual injury after 10 days, 0 to 100 scale, 0 is no effect, 100 is complete control
[31] = 500 g ai/ha, 0 to 100 scale (0 no effect, 100 complete control), 10 days

COc1ccc(-n2cnc(C)n2)cc1C(=O)N1C[C@H](C)Oc2c(Cl)cccc21 [Compound 89]
Plant response rating, Ducksalad [1]: 100
Corn plant response rating [2, 28]: 70
Plant response rating, Corn [2, 29]: 70
Plant response rating, Barnyardgrass [3]: 60
Plant response rating, Goosegrass [4, 30]: 100
Plant response rating, Goosegrass [4, 31]: 100
Plant response rating, Soybean [5, 30]: 100
Plant response rating, Soybean [5, 31]: 100
Plant response rating, Foxtail, Giant [6, 30]: 100
Plant response rating, Foxtail, Giant [6, 31]: 100
Blackgrass plant response rating [7, 28]: 70
Plant response rating, Blackgrass [7, 29]: 80
Pigweed, Palmer plant response rating [8, 28]: 70
Plant response rating, Pigweed, Palmer [8, 29]: 100
Plant response rating, Ryegrass, Italian [9, 30]: 90
Plant response rating, Ryegrass, Italian [9, 31]: 100
Plant response rating, Rice [10]: 15
Soybean plant response rating [11, 28]: 100
Plant response rating, Soybean [11, 29]: 100
Horseweed plant response rating [12, 28]: 20
Plant response rating, Horseweed [12, 29]: 40
Goosegrass plant response rating [13, 28]: 90
Plant response rating, Goosegrass [13, 29]: 100
Plant response rating, Ragweed [14, 30]: 40
Plant response rating, Ragweed [14, 31]: 90
Plant response rating, Sedge, Umbrella [15]: 100
Plant response rating, Wheat [16, 30]: 20
Plant response rating, Wheat [16, 31]: 60
Plant response rating, Kochia [17, 30]: 70
Plant response rating, Kochia [17, 31]: 100
Ragweed plant response rating [18, 28]: 60
Plant response rating, Ragweed [18, 29]: 80
Plant response rating, Corn [19, 30]: 20
Plant response rating, Corn [19, 31]: 60
Ryegrass, Italian plant response rating [20, 28]: 100
Plant response rating, Ryegrass, Italian [20, 29]: 100
Oat, Wild plant response rating [21, 28]: 80
Plant response rating, Oat, Wild [21, 29]: 90
Wheat plant response rating [22, 28]: 50
Plant response rating, Wheat [22, 29]: 50
Plant response rating, Oat, Wild [23, 30]: 70
Plant response rating, Oat, Wild [23, 31]: 90
Kochia plant response rating [24, 28]: 70
Plant response rating, Kochia [24, 29]: 90
Foxtail, Giant plant response rating [25, 28]: 90
Plant response rating, Foxtail, Giant [25, 29]: 100
Plant response rating, Blackgrass [26, 30]: 70
Plant response rating, Blackgrass [26, 31]: 90
Plant response rating, Pigweed, Palmer [27, 30]: 90
Plant response rating, Pigweed, Palmer [27, 31]: 100
